From patent publication US20250145633A1, “SUBSTITUTED FURANOPYRIMIDINE COMPOUNDS AS PDE1 INHIBITORS” (Dart NeuroScience, LLC, priority 2017, published 2025)

These compounds were tested against human PDE1B enzyme (Homo sapiens (Human), UniProt Q01064) (assay: IMAP TR-FRET PDE1B enzymatic assay). Conditions: negative log of half-maximal molar inhibitory concentration; 200 nM FAM-cAMP; values given as bins.
Format: biochemical
Procedure, shortened: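 Full-length GST-tagged human PDE1B (250 pg/well) in IMAP BSA buffer with 10 U/ml calmodulin and 2.5 mM CaCl2; compound pre-incubated 5 min at room temperature, then 200 nM (final) FAM-cAMP for 30 min. IMAP binding reagent/Tb added, 1 h; TR-FRET 520/490 ratio read. IC50 from sigmoidal dose-response fit.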

Compound | PDE1b (pIC50)
Cc1oc2ncnc(NC3(C)CC3)c2c1C(=O)N1CCC(C)(c2ccc(F)cc2)C1 (stereo not shown) [Example 85, 5-[3-(4-Fluorophenyl)-3-methylpyrrolidine-1-carbonyl]-6-methyl-N-(1-methylcyclopropyl)furo[2,3-d]pyrimidin-4-amine] | >8
Cc1oc2ncnc(NC3(C)CC3)c2c1C(=O)NCc1ccc(OC(F)F)cc1 [Example 267, N-{[4-(Difluoromethoxy)phenyl]methyl}-6-methyl-4-[(1-methylcyclopropyl)amino]furo[2,3-d]pyrimidine-5-carboxamide] | >8
COc1ccc(C2=CCN(C(=O)c3c(C)oc4ncnc(NC5(C)CC5)c34)CC2)nc1 [Example 785, 5-[4-(5-Methoxypyridin-2-yl)-1,2,3,6-tetrahydropyridine-1-carbonyl]-6-methyl-N-(1-methylcyclopropyl)furo[2,3-d]pyrimidin-4-amine] | >8
Cc1oc2ncnc(NC3(C)CC3)c2c1C(=O)N1CCC(c2ccnc(F)c2)C1 (stereo not shown) [Example 21, 5-[3-(2-Fluoropyridin-4-yl)pyrrolidine-1-carbonyl]-6-methyl-N-(1-methylcyclopropyl)furo[2,3-d]pyrimidin-4-amine] | >8
Cc1oc2ncnc(NC3(C)CC3)c2c1C(=O)N1CCc2nc(C(C)(C)C)ncc2C1 [Example 41, 5-{2-tert-Butyl-5H,6H,7H,8H-pyrido[4,3-d]pyrimidine-6-carbonyl}-6-methyl-N-(1-methylcyclopropyl)furo[2,3-d]pyrimidin-4-amine] | >8
CCC1(NC(=O)c2c(C)oc3ncnc(NC4(C)CC4)c23)CC1 [Example 145, N-(1-Ethylcyclopropyl)-6-methyl-4-[(1-methylcyclopropyl)amino]furo[2,3-d]pyrimidine-5-carboxamide] | >8

Same assay, conditions: negative log of half-maximal molar inhibitory concentration; 200 nM FAM-cAMP; values given as bins; read-out: PDE1b (pIC50) (converted)

Compound | IC50 [nM]
Cc1oc2ncnc(NC3(C)CC3)c2c1C(=O)NC1CCN(c2cnccn2)CC1 [Example 660, 6-Methyl-4-[(1-methylcyclopropyl)amino]-N-[1-(pyrazin-2-yl)piperidin-4-yl]furo[2,3-d]pyrimidine-5-carboxamide] | 10 to 100
Cc1oc2ncnc(NC3(C)CC3)c2c1C(=O)NCC1CC1(F)F (stereo not shown) [Example 755, N-[(2,2-Difluorocyclopropyl)methyl]-6-methyl-4-[(1-methylcyclopropyl)amino]furo[2,3-d]pyrimidine-5-carboxamide] | 10 to 100
Cc1oc2ncnc(NC3(C)CC3)c2c1C(=O)N1CCn2c(C3CC3)nc(Cl)c2C1 [Example 694, 5-{1-Chloro-3-cyclopropyl-5H,6H,7H,8H-imidazo[1,5-a]pyrazine-7-carbonyl}-6-methyl-N-(1-methylcyclopropyl)furo[2,3-d]pyrimidin-4-amine] | 10 to 100
Cc1ccc(NC(=O)c2c(C)oc3ncnc(NC4(C)CC4)c23)nc1 [Example 438, 6-Methyl-4-[(1-methylcyclopropyl)amino]-N-(5-methylpyridin-2-yl)furo[2,3-d]pyrimidine-5-carboxamide] | 100 to 1000
Cc1oc2ncnc(NC3(C)CC3)c2c1C(=O)NC1CCc2ccccc21 (stereo not shown) [Example 230, N-(2,3-Dihydro-1H-inden-1-yl)-6-methyl-4-[(1-methylcyclopropyl)amino]furo[2,3-d]pyrimidine-5-carboxamide] | 10 to 100
Cc1oc2ncnc(NC3(C)CC3)c2c1C(=O)NC1CC(c2ccc(F)cc2)C1 (stereo not shown) [Example 151, N-[3-(4-Fluorophenyl)cyclobutyl]-6-methyl-4-[(1-methylcyclopropyl)amino]furo[2,3-d]pyrimidine-5-carboxamide] | 10 to 100
Cc1oc2ncnc(NC3(C)CC3)c2c1C(=O)N1CCn2c(C)nc(C3CCOCC3)c2C1 [Example 639, 6-Methyl-5-[3-methyl-1-(oxan-4-yl)-5H,6H,7H,8H-imidazo[1,5-a]pyrazine-7-carbonyl]-N-(1-methylcyclopropyl)furo[2,3-d]pyrimidin-4-amine] | 100 to 1000
Cc1cc(CNC(=O)c2c(C)oc3ncnc(NC4(C)CC4)c23)no1 [Example 113, 6-Methyl-N-[(5-methyl-1,2-oxazol-3-yl)methyl]-4-[(1-methylcyclopropyl)amino]furo[2,3-d]pyrimidine-5-carboxamide] | 10 to 100
CCc1ncnc2c1CCN(C(=O)c1c(C)oc3ncnc(NC4(C)CC4)c13)C2 [Example 23, 5-{4-Ethyl-5H,6H,7H,8H-pyrido[3,4-d]pyrimidine-7-carbonyl}-6-methyl-N-(1-methylcyclopropyl)furo[2,3-d]pyrimidin-4-amine] | 10 to 100
Cc1oc2ncnc(NC3(C)CC3)c2c1C(=O)NCc1cccc(F)n1 [Example 280, N-[(6-Fluoropyridin-2-yl)methyl]-6-methyl-4-[(1-methylcyclopropyl)amino]furo[2,3-d]pyrimidine-5-carboxamide] | 10 to 100
Cc1oc2ncnc(NC3(C)CC3)c2c1C(=O)NCC1(C)CC1 [Example 413, 6-Methyl-4-[(1-methylcyclopropyl)amino]-N-[(1-methylcyclopropyl)methyl]furo[2,3-d]pyrimidine-5-carboxamide] | 10 to 100
Cc1oc2ncnc(NC3(C)CC3)c2c1C(=O)NC(C)C [Example 136, 6-Methyl-4-[(1-methylcyclopropyl)amino]-N-(propan-2-yl)furo[2,3-d]pyrimidine-5-carboxamide] | 10 to 100
Cc1oc2ncnc(NC3(C)CC3)c2c1C(=O)NCc1cnn(C)n1 [Example 740, 6-Methyl-N-[(2-methyl-2H-1,2,3-triazol-4-yl)methyl]-4-[(1-methylcyclopropyl)amino]furo[2,3-d]pyrimidine-5-carboxamide] | 10 to 100
Cc1oc2ncnc(NC3(C)CC3)c2c1C(=O)N1CCc2cnc(C(C)C)nc2C1 [Example 294, 6-Methyl-N-(1-methylcyclopropyl)-5-[2-(propan-2-yl)-5H,6H,7H,8H-pyrido[3,4-d]pyrimidine-7-carbonyl]furo[2,3-d]pyrimidin-4-amine] | 10 to 100
Cc1oc2ncnc(NC3(C)CC3)c2c1C(=O)N1CCn2c(cnc2C2CC2)C1 [Example 684, 5-{3-Cyclopropyl-5H,6H,7H,8H-imidazo[1,5-a]pyrazine-7-carbonyl}-6-methyl-N-(1-methylcyclopropyl)furo[2,3-d]pyrimidin-4-amine] | 100 to 1000
Cc1oc2ncnc(NC3(C)CC3)c2c1C(=O)NCc1cnc(C2CC2)cn1 [Example 732, N-[(5-Cyclopropylpyrazin-2-yl)methyl]-6-methyl-4-[(1-methylcyclopropyl)amino]furo[2,3-d]pyrimidine-5-carboxamide] | 10 to 100
Cc1noc(CNC(=O)c2c(C)oc3ncnc(NC4(C)CC4)c23)n1 [Example 627, 6-Methyl-N-[(3-methyl-1 2 4-oxadiazol-5-yl)methyl]-4-[(1-methylcyclopropyl)amino]furo[2,3-d]pyrimidine-5-carboxamide] | 10 to 100
CCOc1cccc(F)c1CNC(=O)c1c(C)oc2ncnc(NC3(C)CC3)c12 [Example 552, N-[(2-Ethoxy-6-fluorophenyl)methyl]-6-methyl-4-[(1-methylcyclopropyl)amino]furo[2,3-d]pyrimidine-5-carboxamide] | 10 to 100
Cc1oc2ncnc(NC3(C)CC3)c2c1C(=O)N[C@H]1C[C@H](F)C1 [Example 126, 6-Methyl-4-[(1-methylcyclopropyl)amino]-N-[(1R,3R)-3-fluorocyclobutyl]furo[2,3-d]pyrimidine-5-carboxamide] | 10 to 100
Cc1oc2ncnc(NC3(C)CC3)c2c1C(=O)N1C[C@@H]2[C@H](C1)[C@H]2c1ccccc1 [Example 208, 6-Methyl-N-(1-methylcyclopropyl)-5-[(1R,5S,6S)-6-phenyl-azabicyclo[3.1.0]hexane-3-carbonyl]furo[2,3-d]pyrimidin-4-amine] | 10 to 100
Cc1oc2ncnc(NC3(C)CC3)c2c1C(=O)NCc1ccon1 [Example 92, 6-Methyl-4-[(1-methylcyclopropyl)amino]-N-(1,2-oxazol-3-ylmethyl)furo[2,3-d]pyrimidine-5-carboxamide] | 10 to 100
Cc1oc2ncnc(NC3(C)CC3)c2c1C(=O)n1cccn1 [Example 410, 6-Methyl-N-(1-methylcyclopropyl)-5-(1H-pyrazole-1-carbonyl)furo[2,3-d]pyrimidin-4-amine] | 100 to 1000
Cc1ncnc2c1CCN(C(=O)c1c(C)oc3ncnc(NC4(C)CC4)c13)C2 [Example 455, 6-Methyl-5-f{4-methyl-5H,6H,7H,8H-pyrido[3,4-d]pyrimidine-7-carbonyl}-N-(1-methylcyclopropyl)furo[2,3-d]pyrimidin-4-amine] | 10 to 100
Cc1oc2ncnc(NC3(C)CC3)c2c1C(=O)NC1(C)CCOCC1 [Example 109, 6-Methyl-4-[(1-methylcyclopropyl)amino]-N-(4-methyloxan-4-yl)furo[2,3-d]pyrimidine-5-carboxamide] | 10 to 100
COc1ccc(C2CCN(C(=O)c3c(C)oc4ncnc(NC5(C)CC5)c34)CC2)nn1 [Example 364, 5-[4-(6-Methoxypyridazin-3-yl)piperidine-1-carbonyl]-6-methyl-N-(1-methylcyclopropyl)furo[2,3-d]pyrimidin-4-amine] | 10 to 100
Cc1oc2ncnc(NC3(C)CC3)c2c1C(=O)NCc1ccc(C#N)c(F)c1 [Example 87, N-[(4-Cyano-3-fluorophenyl)methyl]-6-methyl-4-[(1-methylcyclopropyl)amino]furo[2,3-d]pyrimidine-5-carboxamide] | 10 to 100
Cc1oc2ncnc(NC3(C)CC3)c2c1C(=O)NCc1ccc(C#N)cc1 [Example 52, N-[(4-Cyanophenyl)methyl]-6-methyl-4-[(1-methylcyclopropyl)amino]furo[2,3-d]pyrimidine-5-carboxamide] | 10 to 100
Cc1oc2ncnc(NC3(C)CC3)c2c1C(=O)NC1(C)CC1 [Example 89, 6-Methyl-N-(1-methylcyclopropyl)-4-[(1-methylcyclopropyl)amino]furo[2,3-d]pyrimidine-5-carboxamide] | 10 to 100
